Source: ChEMBL document CHEMBL1201862, “PubChem BioAssay data set” (2004)
Calls of active or inactive are those of the source.

Assays:
[1] = inhibitors of Vif binding to APOBEC3G peptide, primary screen, biochemical, TR-FRET, GST-Vif 1-94, biotin-A3G peptide, dose response retest (AID 1117319); assay type: functional;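 further: TR-FRET signal of purified GST-Vif binding a biotinylated A3G peptide; inhibitors lower the FRET signal by blocking Vif and A3G binding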
[2] = target: Eukaryotic translation initiation factor 4E (Mus musculus, UniProt P63073); test: eIF4E–eIF4G protein interaction inhibitors, dose response, biochemical, TR-FRET (AID 855); assay type: functional;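 further: potency for disrupting eIF4E binding to eIF4GI seen as loss of FRET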
[3] = target: T1, Caspase-6 (Homo sapiens, UniProt P55212); test: human caspase-6 inhibitors, dose response, biochemical, VEID-R110 fluorescence, cherry-pick (AID 720632)
T1 sequence (P55212 whole entry): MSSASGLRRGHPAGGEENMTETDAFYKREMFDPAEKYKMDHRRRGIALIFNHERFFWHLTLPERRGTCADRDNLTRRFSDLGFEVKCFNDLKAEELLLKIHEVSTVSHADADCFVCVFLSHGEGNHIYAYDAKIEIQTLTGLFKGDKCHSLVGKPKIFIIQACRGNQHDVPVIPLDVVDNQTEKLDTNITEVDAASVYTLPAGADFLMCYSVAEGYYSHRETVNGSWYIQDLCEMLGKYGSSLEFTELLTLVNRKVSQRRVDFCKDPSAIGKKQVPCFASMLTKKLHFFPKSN

[4] = target: T2, Carboxy-terminal domain RNA polymerase II polypeptide A small phosphatase 1 (Homo sapiens, UniProt Q9GZU7); test: inhibitors of CTDSP1, concentration-response testing, biochemical assay, absorbance-based, actives from ultra-high-throughput screening (AID 540297); assay type: functional
T2 sequence (Q9GZU7 whole entry): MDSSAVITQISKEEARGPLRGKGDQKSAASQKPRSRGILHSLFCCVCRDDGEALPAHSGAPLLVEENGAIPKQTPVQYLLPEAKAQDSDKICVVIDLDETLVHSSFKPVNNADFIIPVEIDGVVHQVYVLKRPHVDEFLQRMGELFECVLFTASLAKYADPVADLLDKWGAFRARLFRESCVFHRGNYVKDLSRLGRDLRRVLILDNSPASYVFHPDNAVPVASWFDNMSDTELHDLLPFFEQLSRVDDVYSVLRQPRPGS

[5] = target: Induced myeloid leukemia cell differentiation protein Mcl-1 (Homo sapiens, UniProt Q07820); assay type: functional
[6] = target: T3, Protein skinhead-1 (Caenorhabditis elegans, UniProt P34707); assay type: functional
T3 sequence (P34707 whole entry): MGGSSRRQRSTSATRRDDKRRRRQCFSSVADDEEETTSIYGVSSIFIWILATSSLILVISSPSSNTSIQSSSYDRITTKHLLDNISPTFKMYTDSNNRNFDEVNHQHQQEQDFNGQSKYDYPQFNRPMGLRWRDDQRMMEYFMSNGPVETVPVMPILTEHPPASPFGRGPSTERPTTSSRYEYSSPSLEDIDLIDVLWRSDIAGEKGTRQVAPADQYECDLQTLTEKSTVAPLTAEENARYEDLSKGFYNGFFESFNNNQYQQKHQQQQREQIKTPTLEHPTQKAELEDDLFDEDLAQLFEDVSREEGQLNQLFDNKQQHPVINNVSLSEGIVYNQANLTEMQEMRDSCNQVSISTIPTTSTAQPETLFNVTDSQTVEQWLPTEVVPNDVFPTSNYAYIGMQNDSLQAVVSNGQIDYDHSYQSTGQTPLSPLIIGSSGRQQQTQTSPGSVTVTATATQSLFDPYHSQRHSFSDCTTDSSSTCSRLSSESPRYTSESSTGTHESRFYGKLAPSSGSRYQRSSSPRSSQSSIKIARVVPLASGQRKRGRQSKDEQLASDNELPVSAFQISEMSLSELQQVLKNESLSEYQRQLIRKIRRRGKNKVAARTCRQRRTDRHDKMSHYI

[7] = target: Peroxisome proliferator-activated receptor gamma/Nuclear receptor coactivator 2 (Homo sapiens, UniProt P37231); test: (§1) TR-FRET dose response biochemical High Throughput Screening assay for agonists of the steroid receptor coactivator 2 (SRC-2) recruitment by the peroxisome proliferator-activated receptor gamma (PPAR gamma): non-selective agonists. [Related pubchem assays: 1297, 1032 ]; assay type: functional
[8] = target: Major prion protein (Homo sapiens, UniProt P04156); assay type: functional, cell-based
[9] = target: Peroxisome proliferator-activated receptor gamma/Nuclear receptor coactivator 1 (Homo sapiens, UniProt P37231); test: as §1, with “1 (SRC-1)” for “2 (SRC-2)”, “assays (depositor defined):AID1300, AID1808, AID504735, AID631]” for “assays: 1297, 1032 ]”; assay type: protein assay
[10] = cells
[11] = target: Peroxisome proliferator-activated receptor gamma/Nuclear receptor coactivator 3 (Homo sapiens, UniProt P37231); test: as §1, with “3 (SRC-3)” for “2 (SRC-2)”, “1301 (Confirmation screen.), 1048 (Primary screen.)]” for “1297, 1032 ]”; assay type: functional
[12] = target: T4, 1-phosphatidylinositol 4,5-bisphosphate phosphodiesterase beta-3 (Homo sapiens, UniProt Q01970); test: Fluorescence-based biochemical high throughput dose response assay to identify inhibitors of phospholipase C isozymes (PLC-B3).
T4 sequence (Q01970 whole entry): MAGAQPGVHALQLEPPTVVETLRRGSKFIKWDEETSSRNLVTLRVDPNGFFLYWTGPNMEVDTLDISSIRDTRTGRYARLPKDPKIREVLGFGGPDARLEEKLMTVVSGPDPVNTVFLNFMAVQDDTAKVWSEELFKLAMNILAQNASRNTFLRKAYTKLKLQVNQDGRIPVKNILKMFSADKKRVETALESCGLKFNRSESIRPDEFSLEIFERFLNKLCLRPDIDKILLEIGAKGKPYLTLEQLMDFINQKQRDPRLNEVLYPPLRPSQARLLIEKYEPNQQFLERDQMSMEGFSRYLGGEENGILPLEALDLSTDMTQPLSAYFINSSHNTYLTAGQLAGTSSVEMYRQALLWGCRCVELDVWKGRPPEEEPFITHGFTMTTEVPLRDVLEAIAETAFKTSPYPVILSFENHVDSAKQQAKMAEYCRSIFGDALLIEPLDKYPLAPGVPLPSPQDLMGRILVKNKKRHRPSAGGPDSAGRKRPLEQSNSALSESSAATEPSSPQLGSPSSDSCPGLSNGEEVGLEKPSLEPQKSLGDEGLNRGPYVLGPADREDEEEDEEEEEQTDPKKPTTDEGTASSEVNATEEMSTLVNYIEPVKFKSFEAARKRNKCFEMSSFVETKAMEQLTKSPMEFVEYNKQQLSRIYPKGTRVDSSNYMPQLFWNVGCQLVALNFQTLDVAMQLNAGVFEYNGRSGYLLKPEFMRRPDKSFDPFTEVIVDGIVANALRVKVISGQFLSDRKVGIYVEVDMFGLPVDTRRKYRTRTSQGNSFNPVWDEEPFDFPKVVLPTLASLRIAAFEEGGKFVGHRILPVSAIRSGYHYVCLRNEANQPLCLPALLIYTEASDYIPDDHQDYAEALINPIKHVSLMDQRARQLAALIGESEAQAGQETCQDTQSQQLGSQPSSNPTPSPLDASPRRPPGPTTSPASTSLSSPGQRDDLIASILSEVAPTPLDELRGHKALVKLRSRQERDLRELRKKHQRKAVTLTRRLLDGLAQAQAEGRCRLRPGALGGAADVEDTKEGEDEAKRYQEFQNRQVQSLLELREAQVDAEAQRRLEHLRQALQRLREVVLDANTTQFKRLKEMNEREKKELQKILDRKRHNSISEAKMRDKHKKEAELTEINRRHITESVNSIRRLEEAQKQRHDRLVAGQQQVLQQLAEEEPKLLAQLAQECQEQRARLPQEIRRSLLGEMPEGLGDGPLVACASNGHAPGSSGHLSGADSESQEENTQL

[13] = target: T5, 1-phosphatidylinositol 4,5-bisphosphate phosphodiesterase gamma-1 (Homo sapiens, UniProt P19174); test: Counterscreen for inhibitors of phospholipase C isozymes (PLC-B3): Fluorescence-based biochemical high throughput dose response assay to identify inhibitors of phospholipase C isozymes (PLC-gamma1).
T5 sequence (P19174 whole entry): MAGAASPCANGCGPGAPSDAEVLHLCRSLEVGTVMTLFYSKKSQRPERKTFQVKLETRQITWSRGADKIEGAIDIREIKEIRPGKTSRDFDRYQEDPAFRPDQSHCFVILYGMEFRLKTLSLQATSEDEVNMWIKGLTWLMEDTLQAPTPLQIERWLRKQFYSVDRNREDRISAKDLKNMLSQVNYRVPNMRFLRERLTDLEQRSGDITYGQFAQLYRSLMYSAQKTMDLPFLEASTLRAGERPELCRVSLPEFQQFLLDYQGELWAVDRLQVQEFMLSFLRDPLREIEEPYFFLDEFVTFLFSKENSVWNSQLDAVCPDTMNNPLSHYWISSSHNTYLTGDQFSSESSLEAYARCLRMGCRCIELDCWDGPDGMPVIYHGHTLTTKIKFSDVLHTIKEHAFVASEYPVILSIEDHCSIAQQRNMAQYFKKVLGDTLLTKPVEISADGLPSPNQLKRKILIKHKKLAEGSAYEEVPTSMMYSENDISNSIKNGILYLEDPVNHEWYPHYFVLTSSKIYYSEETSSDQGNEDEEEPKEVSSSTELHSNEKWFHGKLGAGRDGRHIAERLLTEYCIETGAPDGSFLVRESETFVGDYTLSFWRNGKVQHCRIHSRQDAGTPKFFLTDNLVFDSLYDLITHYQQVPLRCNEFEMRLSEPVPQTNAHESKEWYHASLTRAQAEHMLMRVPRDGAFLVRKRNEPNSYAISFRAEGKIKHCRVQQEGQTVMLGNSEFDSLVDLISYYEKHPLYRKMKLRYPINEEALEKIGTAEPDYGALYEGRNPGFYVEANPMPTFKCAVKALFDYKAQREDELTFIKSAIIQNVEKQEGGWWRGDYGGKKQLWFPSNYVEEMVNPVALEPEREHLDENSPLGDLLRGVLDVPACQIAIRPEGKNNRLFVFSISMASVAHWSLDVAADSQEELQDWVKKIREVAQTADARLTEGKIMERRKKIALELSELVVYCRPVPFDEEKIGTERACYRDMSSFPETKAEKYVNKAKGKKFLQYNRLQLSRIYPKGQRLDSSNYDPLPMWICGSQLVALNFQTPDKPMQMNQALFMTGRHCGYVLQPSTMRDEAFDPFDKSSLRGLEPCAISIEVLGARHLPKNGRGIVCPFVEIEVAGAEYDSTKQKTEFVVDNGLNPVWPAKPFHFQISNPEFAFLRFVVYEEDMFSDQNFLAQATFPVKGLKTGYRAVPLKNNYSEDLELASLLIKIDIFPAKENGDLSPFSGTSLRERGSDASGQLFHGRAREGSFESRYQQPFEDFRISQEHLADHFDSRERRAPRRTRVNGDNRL

[14] = target: DNA dC->dU-editing enzyme APOBEC-3A (Homo sapiens, UniProt P31941); test: Dose Response confirmation of small molecule APOBEC3A DNA Deaminase Inhibitors via a fluorescence-based single-stranded DNA deaminase assay. [Related pubchem assays (depositor defined):AID493011, AID493024]; assay type: functional
[15] = target: DNA dC->dU-editing enzyme APOBEC-3G (Homo sapiens, UniProt Q9HC16); assay type: functional;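 further: Dose-response counterscreen measuring inhibition of APOBEC3G DNA deaminase activity, run while confirming APOBEC3A inhibitors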
[16] = test system: Streptococcus sp. 'group A'; test: growth inhibition of control SK(-) GAS strain, dose response, counter-screen for streptokinase expression inhibitor project, luminescence, kanamycin, BacTiterGlo, confirmation (AID 1900); assay type: functional, organism-based
[17] = target: T6, Streptokinase A (Streptococcus pyogenes serotype M1, UniProt P10520); test: S. pyogenes streptokinase expression inhibitors, potency, dose response, plasminogen activation absorbance, OD405 (AID 1914); assay type: functional, Streptococcus pyogenes M1 GAS;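 further: secreted streptokinase activity via plasminogen activation per viability signal from cell pellet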
T6 sequence (P10520 whole entry): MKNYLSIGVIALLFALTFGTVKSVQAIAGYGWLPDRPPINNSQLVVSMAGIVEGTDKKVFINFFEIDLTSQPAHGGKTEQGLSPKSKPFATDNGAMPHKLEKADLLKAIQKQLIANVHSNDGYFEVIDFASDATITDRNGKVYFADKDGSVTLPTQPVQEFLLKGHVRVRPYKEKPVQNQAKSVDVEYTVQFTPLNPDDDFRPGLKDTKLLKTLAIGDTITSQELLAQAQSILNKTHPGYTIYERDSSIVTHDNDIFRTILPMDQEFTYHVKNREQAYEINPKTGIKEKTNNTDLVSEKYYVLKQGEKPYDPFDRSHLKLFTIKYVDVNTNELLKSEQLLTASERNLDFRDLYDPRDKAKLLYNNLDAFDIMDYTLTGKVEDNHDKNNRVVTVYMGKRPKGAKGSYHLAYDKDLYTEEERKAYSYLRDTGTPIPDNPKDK

[18] = test system: Streptococcus; test: Group A Streptococcus viability loss, dose response, counter-screen for streptokinase expression inhibitor project, luminescence, BacTiterGlo (AID 1915); assay type: functional, organism-based;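 further: potency for reduction of bacterial viability or growth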

In the case of `CCOC(=O)C1CCN(S(=O)(=O)c2cccc(-c3cn4cccc(C)c4n3)c2)CC1`, the IC50 [1] is reported as > 100 µM (active).

With `O=C(CSc1ccsc1[N+](=O)[O-])Nc1cc(F)ccc1F` the IC50 [2] was 28.4 µM (active), the AC50 [3] was 5.74 µM (active) and the IC50 [4] was 2.76 µM (active). For the same compound, the IC50 [5] was 6.52 µM (not active).

In the case of `Cc1cc2cc(CNC(=O)c3ccc(S(=O)(=O)N4CCCC4)cc3)ccc2n1C`, the IC50 [6] is reported as > 100 µM (inactive), the EC50 [7] is reported as 3.91 µM (active) and the IC50 [8] is reported as 21.5 µM (inactive). For the same compound, the EC50 [9] was 3.68 µM (active), the IC50 [10] was > 138 µM (inactive) and the EC50 [11] was 8.02 µM (active).

In the case of `CC(=O)c1ccc(Nc2nc(=O)c3cccnc3s2)cc1`, the IC50 [1] is reported as > 100 µM (active).

With `COc1ccccc1N1CCN(C(=O)c2cc(-c3cccs3)on2)CC1` the IC50 [1] was > 100 µM (active).

For `CCOc1cccc(C(=O)Nc2ccc(NC(=O)c3ccccc3)c(C)c2)c1`, the IC50 [12] was > 122 µM (inactive) and the IC50 [13] was > 122 µM (inactive).

With `CC1(CC(=O)N/N=C/c2cc([N+](=O)[O-])c(O)cc2O)OCCO1` the IC50 [14] was 19.3 µM (active), the IC50 [12] was > 122 µM (inactive) and the AC50 [3] was 23.7 µM (active). The IC50 [4] was 4.41 µM (active), the IC50 [15] was 41 µM (active) and the IC50 [13] was > 122 µM (inactive).

For `O=C(CC1S/C(=N\c2ccccc2)N(CCc2c[nH]c3ccccc23)C1=O)Nc1ccccc1F` (stereo unspecified), the EC50 [16] was 13.2 µM (active), the EC50 [17] was 14 µM (inconclusive) and the IC50 [12] was > 122 µM (inactive). For the same compound, the EC50 [18] was 43.5 µM (active) and the IC50 [13] was > 122 µM (inactive).
